These results are taken from patent US20040141912A1, “Method for targeting chemical compounds to cells and pharmaceutical compositions used therein” (priority 2001, published 2004).

The subject of test [1] is Jurkat cells. Briefly: FACS analysis of DDC uptake by Jurkat cells induced to undergo apoptosis by anti-Fas antibody (PI co-staining). It counts as cell-based, human. The method, then:
FIG. 3: Cultured Jurkat cells (A) were induced to undergo apoptosis by anti-Fas antibody (0.1 μg/ml) for three hours. Subsequently, both control cells (A and C) and apoptotic cells (B and D) were then incubated with 50 μM of DDC in the presence (C and D) and absence (A and B) of 1 μM of rottlerin, an inhibitor of PKCδ. Prior to FACS analysis, cells were also co-stained with propidium iodide (PI), a marker of membrane disintegration during late phases of cell death. In the shown dot plot, the left lower quadrant represents the healthy, non-stained fraction of cells. The right lower quadrant represents the newly formed population of cells in the early stages of apoptosis. These cells are PLS-activated cells, yet still maintaining membrane integrity and thus excluding PI. Cells binding both DDC and PI, i.e., cells in the late stages of apoptosis are represented in the right upper quadrant. The induction of apoptosis was associated with the emergence of a marked, distinct population of cells in the early stages of the apoptotic process, selectively binding DDC and occupying the right lower quadrant of the plot. […] UV axis denotes fluorescence intensity of DDC; FL2 axis denotes fluorescence intensity of PI.
FIG. 4: Jurkat cells were induced to undergo apoptosis by treatment with anti-Fas Ab (0.1 μg/ml) for three hours. Subsequently, cells were co-incubated with 50 μM of DDC and PI, in the presence of 1 mM of CaCl2, or under conditions of calcium deprivation (i.e., co-administration of the calcium chelators BAPTA and EGTA). Binding of DDC and PI was evaluated by FACS.
FIG. 4A: A and C: control cells; B and D: apoptotic cells; A and B: with Ca^2+; C and D: deprivation of Ca^2+. The lower left quadrant in each dot plot represents the healthy non-stained fraction of cells. The lower right quadrant represents the newly formed population of cells in the early stages of apoptosis, characterized by activation of PLS, but still maintaining membrane integrity. […] However, DDC binding to the cells in early apoptosis was markedly lost upon inhibition of PLS by calcium deprivation (B versus D).
Cultured Jurkat cells were grown as described in Example 1, and apoptosis was then triggered by treatment with anti-Fas Ab (0.1 μg/ml) for three hours, thus inducing […] activation in these cells.
In order to inhibit PLS activity in the apoptotic cells, rottlerin was used (Calbiochem, Germany). […] Subsequent to induction of apoptosis, cells were incubated for 40 minutes with rottlerin, at a concentration of 1 μM, were then subjected to treatment with DDC at a concentration of […] and immediately taken for FACS analysis (FIG. 3).
Inhibition of PLS activity in the apoptotic cells was also achieved by reduction of ambient Ca^2+ levels. Following induction of apoptosis, both control and apoptotic cells (1×10^7 cells) were subjected to Ca^2+-deprivation, by co-treatment with BAPTA (20 μM) and EGTA (1 mM) for 30 minutes. Cells were then treated with DDC (250 μM) and propidium iodide (PI). Binding of DDC to these Ca^2+-deprived cells and to control, Ca^2+-treated (1 mM) cells was analyzed by FACS, and the dot plot is shown in FIG. 4A. The lower left quadrant in each dot plot represents the healthy fraction of cells. The lower right quadrant represents the newly-formed population of cells in the early stages of apoptosis, still maintaining membrane integrity but characterized by activation of PLS. As shown, these cells manifest DDC binding while excluding PI. The upper right quadrant represents cells in the late stages of apoptosis, characterized by disintegration of the plasma membrane, thus unselectively permeable to compounds including PI, that is normally excluded from healthy cells.
Induction of apoptosis is a major pathway for the activation of PLS. […] For this purpose, apoptosis was triggered in cultured Jurkat cells by treatment with anti-Fas antibody. […]

Test [2] deals with Jurkat cells. In words: FACS analysis of DDC uptake by Jurkat cells induced to undergo apoptosis by staurosporine. The test is classed as cell-based, human. The method, then: FIG. 8: Jurkat cells were induced to undergo apoptosis by treatment with staurosporine. Subsequently, these cells were treated with DDC. The relative change in DDC uptake by cells in early versus late stages of apoptosis, following induction and inhibition of the PLS system is presented. Shown are the percents of positive early or late apoptotic events (mean values), calculated from 3 independent experiments, and wherein the events (either early or late) observed in apoptotic culture are regarded as 100%. Selective accumulation of DDC in early, but not in late apoptotic cells was detected as a result of staurosporine treatment. Ca^2+-deprivation or rottlerin treatment were performed as described in FIG. 1.
The selective uptake of DDC by apoptotic cells is not dependent upon the type of apoptotic trigger. […] Staurosporine acts in an apoptotic pathway which is largely distinct from that of anti-Fas Ab. Jurkat cells were grown as described in Example 1, and were subsequently treated for 4 hours with 1 μM of staurosporine (S4400; Sigma, USA). After induction of apoptosis, cells were treated with DDC (250 μM) for 5 minutes, and were then co-stained with PI and subjected to FACS analysis. Non-treated cells served as control.

“Also recorded” adds a separate entry of the source.

Turning to `CN(C)c1cccc2c(S(=O)(=O)NC(CSSCC(NS(=O)(=O)c3cccc4c(N(C)C)cccc34)C(=O)O)C(=O)O)cccc12` (centres unmarked) [DDC], in test [1] (PI-permeable cells, BAPTA + EGTA), the “Binding of DDC to cells in the late stages of apoptosis upon calcium deprivation” value is “no effect of PLS inhibition; also recorded: did not affect binding of DDC”. In addition, the “Cells in the early stages of apoptosis binding DDC (right lower quadrant)” value in test [1] (apoptotic cells (anti-Fas 0.1 μg/ml 3 h), absence of rottlerin) was determined as 46%; in test [1] (apoptotic cells, rottlerin 1 μM (PKCδ inhibitor), 40 min), 7.9%. For the same molecule, the “Uptake of DDC by cells in the early stages of apoptosis” value in test [1] (apoptotic cells (anti-Fas), with Ca2+ 1 mM) came to 38.4%; in test [1] (apoptotic cells, Ca2+-deprivation: BAPTA 20 μM + EGTA 1 mM, 30 min), 8.89%. Besides, in test [1] (control cells, with Ca2+ 1 mM), the “Uptake of DDC (early-apoptosis quadrant)” value stood at 4.11%. Moreover, the “DDC binding to cells in the late stages of apoptosis in response to rottlerin” value in test [1] (right upper quadrant (DDC and PI positive), rottlerin 1 μM) was “did not manifest alterations in DDC binding”. The “Positive early apoptotic events for DDC (apoptotic culture regarded as 100%)” value in test [2] (control non-treated cells, mean of 3 experiments, DDC 250 μM 5 min) amounted to 36%; in test [2] (staurosporine 1 μM 4 h apoptotic cells), 100%; in test [2] (staurosporine-treated cells, Ca2+-deprivation), 14%; in test [2] (staurosporine-treated cells, rottlerin treatment), 30%.
